Data on 30 compounds can be found in patent publication US4634709A, “Platelet aggregation inhibitory agents and intermediates therefor” (Research Corporation, priority 1984, dated 1987).

Counter-ions that a name gives are not always drawn.

Tested on in the first data set: not given
Test: not given
The note with it: literature; cited from earlier work.
Turning to `O=C(O)C1CCCNC1` (stereo not drawn) [nipecotic acid, Piperidine-3-carboxylic acid], the “deleterious / adverse effects” value is on record as “has not been discerned to have deleterious effects”.

Another data set concerns human blood platelet aggregation, thrombin-induced. In words: Inhibition of thrombin-induced human blood platelet aggregation (aggregometry, platelet-rich plasma). The format is cell-based. The note with it: 50 μM evaluant; human PRP; 1.0 unit α-thrombin/ml PRP. The method, then: (§1) Adenosine diphosphate (ADP) used to induce platelet aggregation was employed as the sodium salt. A 10 mM stock solution was prepared fresh before each use in modified Tyrode's buffer and working dilutions were prepared with modified Tyrode's buffer immediately prior to use. The buffer contained NaCl (137.00 mM), KCl (2.70 mM), NaHCO3 (11.90 mM), NaH2 PO4.H2 O (0.36 mM) and glucose (5.60 mM) in redistilled water. Adjustment to pH 7.4 was effected by addition of 1N HCl. A solution of highly purified human α-thrombin (10,624 units/ml) wss stored at -70° C. in 10 μl aliquots. The latter were diluted with modified Tyrode's buffer to a concentration of 10.0 units/ml immediately prior to use.
Venous blood for the examples set forth below was collected in plastic syringes from healthy male volunteers (aged 21-30 years) who had fasted overnight and had abstained from all medications, alcohol, tobacco and caffeine for a period of at least one week prior to donations. In experiments employing ADP as the aggregation-inducing agent, the blood was transferred into siliconized centrifuge tubes containing 3.2% sodium citrate (blood/citrate ratio 8:1); in thrombin-induced aggregations, 3.8% sodium citrate (blood/citrate ratio 9:1) was used. The cirtrated whole blood was centrifuged at 120×g for 15 minutes at 23° C., yielding platelet-rich plasma (PRP); platelet-poor plasma (PPP) was obtained by centrifugation of citrated whole blood at 1,100×g for […] at 23° C. The platelet count of PRP was determined and adjusted to a final count of 300,000 platelets per mm^3 by dilution with autologous PPP. (Occasionally, blood from a given donor yielded PRP with a count lower than the stipulated figure; however, this was usually greater than 285,000, and never less than 250,000 platelets per mm^3.) The plasma so obtained was transferred in 1.2-ml aliquots to siliconized glass tubes, by means of a siliconized Pasteur pipet. In order to maintain plasma pH in the appropriate range, the air in the tubes was displaced gently (1 minute) with a 5% CO2 -95% air (v/v) mixture and the tubes sealed with Parafilm according to the method of Han et al, Br. J. Haematol. Vol. 26, pages 373-389 (1974). The plasma was maintained at 37° C. in a water bath until used in the aggregation experiments. […]
Initially, in each experiment, 0.45-ml aliquots of PRP were placed in siliconized cuvettes and stirred (1,100 rpm) in the aggregometer at 37° C. to ascertain the absence of spontaneous aggregation. […] In each case, the concentration of ADP so determined was used in eliciting aggregation throughout each specific set of aggregometric evaluations. […]
As to `CCCCCCCCCCN1CCCC(C(=O)N(C)CCCCCCN(C)C(=O)C2CCCN(CCCCCCCCCC)C2)C1` (stereo not drawn) [Example 42, 1,6-Bis[N--(1-decylnipecotoyl)-N--methylamino]hexane Dihydriodide], the “% inhibition of aggregation, thrombin-induced” value came out at 88.3%.

On to `CCCCCCCCCCN1CCCC(C(=O)N2CCN(C(=O)C3CCCN(CCCCCCCCCC)C3)CC2)C1` (stereo not drawn) [Example 37, N,N'--Bis(1-decylnipecotoyl)piperazine Dihydriodide], for which the “% inhibition of aggregation, thrombin-induced” value turned out to be 88.2%.

The same data set, now with this note: in words; FIG. 2.
For the compound `CN(C)CCCN1c2ccccc2Sc2ccc(Cl)cc21` [chloropromazine, reference compound], the “effectiveness in thrombin-induced aggregation compared with the piperidine derivatives” value was “much less effective”.

The next data set has as its system platelet aggregation, ADP-induced.
Test: not given
The note with it: 250 μM; Cucuiani et al; cited from earlier work.
With `OCCN(CCO)c1nc(N2CCCCC2)c2nc(N(CCO)CCO)nc(N3CCCCC3)c2n1` [dipyridamole], the “inhibition in ADP-induced aggregation” value is listed as 10%.

Still in this data set, the particulars now being: 2,470 μM; Packham et al; cited from earlier work.
`O=C1C(CC[S+]([O-])c2ccccc2)C(=O)N(c2ccccc2)N1c1ccccc1` (stereo not drawn) [sulfinpyrazone]: the “inhibition in ADP-induced aggregation” value is 0%.

Another data set relates to human blood platelet aggregation, ADP-induced. In words: Inhibition of ADP-induced human blood platelet aggregation (aggregometry, platelet-rich plasma). The format is cell-based. The note with it: Homo sapiens, Platelet, read-out: % inhibition of aggregation, ADP-induced. The method, then: as §1
Venous blood for the examples set forth below was collected in plastic syringes from healthy male volunteers (aged 21-30 years) who had fasted overnight and had abstained from all medications, alcohol, tobacco and caffeine for a period of at least one week prior to donations. In experiments employing ADP as the aggregation-inducing agent, the blood was transferred into siliconized centrifuge tubes containing 3.2% sodium citrate (blood/citrate ratio 8:1); in thrombin-induced aggregations, 3.8% sodium citrate (blood/citrate ratio 9:1) was used. The cirtrated whole blood was centrifuged at 120×g for 15 minutes at 23° C., yielding platelet-rich plasma (PRP); platelet-poor plasma (PPP) was obtained by centrifugation of citrated whole blood at 1,100×g for […] at 23° C. The platelet count of PRP was determined and adjusted to a final count of 300,000 platelets per mm^3 by dilution with autologous PPP. (Occasionally, blood from a given donor yielded PRP with a count lower than the stipulated figure; however, this was usually greater than 285,000, and never less than 250,000 platelets per mm^3.) The plasma so obtained was transferred in 1.2-ml aliquots to siliconized glass tubes, by means of a siliconized Pasteur pipet. In order to maintain plasma pH in the appropriate range, the air in the tubes was displaced gently (1 minute) with a 5% CO2 -95% air (v/v) mixture and the tubes sealed with Parafilm according to the method of Han et al, Br. J. Haematol. Vol. 26, pages 373-389 (1974). The plasma was maintained at 37° C. in a water bath until used in the aggregation experiments.
Assays of platelet aggregation was performed at least in duplicate, using plasma acquired from different donors, employing a method developed by Quintana et al (Quintana et al, Thromb. Res., Vol. 22, pages 665-680 (1981); Quintana et al, Thromb. Res., Vol. 20, pages 405-415 (1980) (cf. Born, Nature, Vol. 194, pages 927-929 (1962) and Mustard et al, J. Lab. Clin. Med., Vol. 64, pages 548-559 (1964)).
Initially, in each experiment, 0.45-ml aliquots of PRP were placed in siliconized cuvettes and stirred (1,100 rpm) in the aggregometer at 37° C. to ascertain the absence of spontaneous aggregation. Appropriate ADP solutions (50 μl) were subsequently injected using a Hamilton microliter syringe to determine the minimal concentration eliciting maximal biphasic aggregation. This ranged from 2 μM to 8 μM (cf. Quintana et al, Thromb. Res., Vol. 22, pages 665-680 (1981); Quintana et al, Thromb. Res., Vol. 20, pages 405-415 (1980)). In each case, the concentration of ADP so determined was used in eliciting aggregation throughout each specific set of aggregometric evaluations. In all thrombin-induced aggregation experiments the same stimulus was applied; this constituted injection of 50 μl of the solution containing 10.0 units of α-thrombin/ml (affording a final concentration of 1.0 unit of α-thrombin/ml PRP).
0.5 μl of a solution of the evaluant compound in redistilled 95% ethanol was injected into a stirred (1,100 rpm) 0.45-ml aliquot of plasma in a siliconized cuvette in the aggregometer-well (37° C.). After 15 seconds, the cuvette was transferred to an incubator (also at 37° C.) and the contents held at this temperature, without stirring, until 2 minutes post-injection. […]
In general, inhibition refers to the drop in the measured response relative to a control, in per cent. `C[N+]1(CCCCCCCCCC[N+]2(C)CCCCC2)CCCCC1` [Example 33, 1,10-Bis(N--methylpiperidinium)decane Diiodide]: the inhibition at 100 µM came out at 0%.

Still in this data set, the particulars now being: Platelet; 10 μM evaluant; human PRP.
In turn, `CCCCCCCCCCN1CCCC(C(=O)N2CCN(C(=O)C3CCCN(CCCCCCCCCC)C3)CC2)C1` (stereo not drawn) [Example 37, N,N'--Bis(1-decylnipecotoyl)piperazine Dihydriodide] returned an inhibition at 10 µM of 48.3%.

Still in this data set, the particulars now being: Platelet; 50 μM evaluant; human PRP; % reduction in maximal aggregation intensity vs control.
On to `CCCCCCCCCCN1CCCC(C(=O)N(CCCC)CCCCCCN(CCCC)C(=O)C2CCCN(CCCCCCCCCC)C2)C1` (stereo not drawn) [Example 43, 1,6-Bis[N--(1-decylnipecotoyl)-N--butylamino]hexane Dihydriodide], for which the inhibition at 50 µM was found to be 38.6%.

Consider `Oc1ccc2c(c1)CCCN2CCCCCCCCCCN1CCCc2cc(O)ccc21` [Example 7, 1,10-Bis(6-hydroxy-1,2,3,4-tetrahydroquinolino)decane Dihydriodide], for which the inhibition at 50 µM amounted to 25.9%. Still for that read-out and setting: to `CCCCCCCCCCN1CCCC(C(=O)N(C)CCN(C)C(=O)C2CCCN(CCCCCCCCCC)C2)C1` (stereo not drawn) [Example 40, 1,2-Bis[N--(1-decylnipecotoyl)-N--methylamino]ethane Dihydriodide] belongs 82.6%; to `CCCCCCCCCCN(CCCCCCCCCC)C(=O)C1CCCN(Cc2ccc(CN3CCCC(C(=O)N(CCCCCCCCCC)CCCCCCCCCC)C3)cc2)C1` (stereo not drawn) [Example 16, α,α'-Bis[3-(N,N--didecylcarbamoyl)piperidino]-p-xylene Dihydrobromide], 0%; to `Oc1ccc2c(c1)CCCN2Cc1ccc(CN2CCCc3cc(O)ccc32)cc1` [Example 5, α,α'-Bis(6-hydroxy-1,2,3,4-tetrahydroquinolino)-p-xylene Dihydrobromide], 21.5%.

Take `c1ccc2c(c1)CCN(Cc1ccc(CN3CCc4ccccc4C3)cc1)C2` [Example 2, α,α'-Bis(1,2,3,4-tetrahydroisoquinolino)-p-xylene Dihydrobromide]: testing at 50 µM gave an inhibition of 0%. The compound `CCCCCCCCCCN1CCCc2cc(O)ccc21` [Example 9, 1-Decyl-6-hydroxy-1,2,3,4-tetrahydroquinoline Hydriodide] registered an inhibition at 50 µM of 33%. On the same count and under the same terms, the value for `CCCCCCCCCCN1CCCC(C(=O)N(C)CCCCCCN(C)C(=O)C2CCCN(CCCCCCCCCC)C2)C1` (stereo not drawn) [Example 42, 1,6-Bis[N--(1-decylnipecotoyl)-N--methylamino]hexane Dihydriodide] was 85.6%; that for `CCCCCCCCCCCCCCN1CCCc2cc(O)ccc21` [Example 12, 1-Tetradecyl-6-hydroxy-1,2,3,4-tetrahydroquinoline Hydriodide] was 0%; that for `CCCCCCN1CCCC(C(=O)N(CCCC)CCCCCCN(CCCC)C(=O)C2CCCN(CCCCCC)C2)C1` (stereo not drawn) [Example 44, 1,6-Bis[N--(1-hexylnipecotoyl)-N--butylamino]hexane Dihydriodide] was 72.4%.

Take `CCCCCCCCCCN1CCCC(C(=O)N2CCN(C(=O)C3CCCN(CCCCCCCCCC)C3)CC2)C1` (stereo not drawn) [Example 37, N,N'--Bis(1-decylnipecotoyl)piperazine Dihydriodide]: testing at 50 µM gave an inhibition of 93.8%. As for `CCCCCCN1CCCc2cc(O)ccc21` [Example 11, 1-Hexyl-6-hydroxy-1,2,3,4-tetrahydroquinoline Hydriodide], the inhibition at 50 µM was 37.2%.

On to `CCCCCCN1CCCC(C(=O)N(C)CCN(C)C(=O)C2CCCN(CCCCCC)C2)C1` (stereo not drawn) [Example 41, 1,2-Bis[N--(1-hexylnipecotoyl)-N--methylamino]ethane Dihydriodide], for which the inhibition at 50 µM was found to be 71.6%.

`CN1CCCC(C(=O)NCCCCCCCCCCNC(=O)C2CCCN(C)C2)C1` (stereo not drawn) [Example 28, 1,10-Bis[N--(1-methylnipecotoyl)amino]decane Dihydriodide]: the inhibition at 50 µM is 30.9%. The same measure, in the same setting: to `CCCCCCCCCCNC(=O)C1CCCN(Cc2ccc(CN3CCCC(C(=O)NCCCCCCCCCC)C3)cc2)C1` (stereo not drawn) [Example 19, α,α'-Bis[3-(N--decylcarbamoyl)piperidino]-p-xylene Dihydrobromide] belongs 0%; to `CCCCN(CCCC)C(=O)C1CCCN(Cc2ccc(CN3CCCC(C(=O)N(CCCC)CCCC)C3)cc2)C1` (stereo not drawn) [Example 14, α,α'-Bis[3-(N,N--dibutylcarbamoyl)piperidino]-p-xylene Dihydrobromide], 49.7%.

Still in this data set, the particulars now being: Platelet; 100 μM evaluant; human PRP; read-out: % inhibition of aggregation, ADP-induced.
In the case of `CCCCN(CCCC)C(=O)c1cccnc1` [Example 13, N,N--Dibutylnicotinamide], the inhibition at 100 µM was found to be 0%.

On to `CCCCCCCCN(C)C(=O)c1cccnc1` [Example 20, N--Methyl-N--octylnicotinamide], for which the inhibition at 100 µM was determined as 12.1%.

With `CCCCCCCCN(C)C(=O)C1CCCNC1` (stereo not drawn) [Example 21, N--Methyl-N--octylnipecotamide], the inhibition at 100 µM came to 49.9%. Turning to `CCCCN(CCCC)C(=O)C1CCCN(C)C1` (stereo not drawn) [Example 23, 1-Methyl-3-(N,N--dibutylcarbamoyl)piperidine Hydriodide], the inhibition at 100 µM amounted to 11.8%. On the same count and under the same terms, the value for `CCCCCCN1CCCc2cc(O)ccc21` [Example 11, 1-Hexyl-6-hydroxy-1,2,3,4-tetrahydroquinoline Hydriodide] was 45.9%.

Take `CCCCCCCCN(C)C(=O)C1CCCN(C)C1` (stereo not drawn) [Example 22, 1-Methyl-3-(N--methyl-N--octylcarbamoyl)piperidine Hydriodide]: the inhibition at 100 µM was found to be 33.1%. Consider `CCCCCCCCCCNC(=O)C1CCCN(C)C1` (stereo not drawn) [Example 25, 1-Methyl-3-(N--decylcarbamoyl)piperidine Hydriodide], for which the inhibition at 100 µM was determined as 45.6%.

The data set is the same for the next values; noted with them: Platelet; 500 μM evaluant; human PRP.
Compound `CN1CCCC(C(=O)NCCCCCCNC(=O)C2CCCN(C)C2)C1` (stereo not drawn) [Example 31, 1,6-Bis[N--(1-methylnipecotoyl)amino]hexane Dihydriodide] displayed an inhibition at 500 µM of 17%. The same measure, in the same setting: to `CN(CCN(C)C(=O)C1CCCNC1)C(=O)C1CCCNC1` (stereo not drawn) [Example 39, 1,2-Bis(N-nipecotoyl-N-methylamino)ethane dihydrobromide] belongs 46.3%. In turn, `O=C(C1CCCNC1)N1CCN(C(=O)C2CCCNC2)CC1` (stereo not drawn) [Example 35, N,N'--Bis(nipecotoyl)piperazine Dihydrobromide] displayed an inhibition at 500 µM of 48.9%.

Staying with this data set, now noted: Table 1 footnote 5.
As for `c1ccc2c(c1)CCN(Cc1ccc(CN3CCc4ccccc4C3)cc1)C2` [Example 2, α,α'-Bis(1,2,3,4-tetrahydroisoquinolino)-p-xylene Dihydrobromide], the “ADP-induced platelet aggregation inhibition, in words” value was “inactive”.

The data set is the same for the next values; noted with them: in words.
With `CN(C)CCCN1c2ccccc2Sc2ccc(Cl)cc21` [chloropromazine, reference compound], the “effectiveness in ADP-induced aggregation compared with the piperidine derivatives” value is on record as “considerably less effective”.
